Test results taken from patent publication US20160075689A1, “POLYMERASE, ENDONUCLEASE, AND HELICASE INHIBITORS AND METHODS OF USING THEREOF” (THE BOARD OF TRUSTEES OF THE UNIVERSITY OF ARKANSAS, priority 2013, published 2016).
pIC50: −log10 of the molar value. “And” between values parts separate entries of the source, which are not always exact repeats. Equal values may be shown once.

Key:
Format in all cases: biochemical
EndoG [1] = target: T1, EndoG (Homo sapiens, UniProt Q14249); experiment: High-throughput EndoG screening assay
T1 sequence (Q14249 49-297): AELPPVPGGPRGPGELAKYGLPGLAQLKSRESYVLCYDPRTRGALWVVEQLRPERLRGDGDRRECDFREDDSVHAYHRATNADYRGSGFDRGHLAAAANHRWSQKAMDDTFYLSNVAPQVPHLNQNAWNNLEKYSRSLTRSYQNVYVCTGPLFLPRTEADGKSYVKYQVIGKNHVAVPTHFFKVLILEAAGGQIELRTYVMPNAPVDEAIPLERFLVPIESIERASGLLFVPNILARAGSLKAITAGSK
Protocol: A reaction mixture was prepared in each well of a white 96-well plate (Costar, Corning, N.Y.) as follows: 0.25 μM Cy5.5-labeled oligonucleotide (described in US provisional patent filed Oct. 19, 2012, Ser. No. 61/716,097) 0.3 mM MgCl2, 10 mM Tris-HCl, pH 7.4, 1 μl DMSO containing 5 or 50 ng of test compound, and nuclease-free water for a total reaction volume of 100 μl. The background (negative control) and uninhibited EndoG samples were measured using DMSO only, or DMSO containing recombinant EndoG (4 μg/ml), respectively. After addition of EndoG, fluorescence intensity was kinetically measured on a Bio-Tek Synergy 4.0 plate reader at 37° C. and mean velocity (mRFU/min) within 20 min was automatically calculated by the plate reader. The background was subtracted prior to the calculation of EndoG activity (%). The percent of EndoG activity was calculated from the mean velocity of a compound divided by the mean velocity of DMSO with recombinant EndoG, and the obtained value multiplied by 100.

EndoG [2] = target: T1, EndoG; experiment: Plasmid incision assay; conditions: agarose gel, FIG. 9
Protocol: A reaction mixture was prepared containing 0.5 μg pECFP plasmid DNA, 2 mM CaCl2, 5 mM MgCl2, 10 mM Tris-HCl, pH 7.4, 0.5 mM dithiothreitol. The test compound [50 ng in DMSO (1 μl)] was added. Recombinant EndoG was then added to the final concentration of 200 ng/ml and the reaction was incubated for 1 h at 37° C. The reaction was terminated by adding 2 μl of 10 mM Tris-HCl, pH 7.4, 1% SDS, 25 mM EDTA, 7.2 mM bromophenol blue. The samples were run in 1% agarose gel in Tris-acetate-EDTA buffer (40 mM Tris, 20 mM acetic acid, 1 mM EDTA, pH 8), at 7 V/cm for 35 min, and DNA was stained with ethidium bromide. An EagleEye scanning densitometer (Stratagene, La Jolla, Calif.) was utilized to quantify the relative amount of endonuclease-treated plasmid DNA present in a covalently-closed circular (supercoiled) DNA, open circular DNA, or linear DNA, or in a digested form.

HCV NS3 helicase = target: T2, HCV NS3 helicase (Hepatitis C virus genotype 1b, UniProt P26663); experiment: Fluorescence-based helicase assay; conditions: IC50 for inhibition of NS3 helicase, mean ± standard deviation of three data sets
T2 construct: analyze the helicase activity of NS3 helicase in the presence of the compounds; made in house
Protocol: A library of compounds was screened using a previously validated quantitative assay that measures helicase activity over time. The assay relies upon helicase-catalyzed displacement of a fluorescently-labeled oligonucleotide (FIG. 13A). The concentration of enzyme and compounds used was 250 nM and 20 μM respectively. The experiments were performed in triplicate. […] Three potential helicase inhibitors were identified using the fluorescence based assay. […] The inhibitor compounds identified in our screen were ITBA-3-79, ITBA-3-82 and ITBA-3-85 (FIG. 14A). […] The IC50 value for ITBA-3-79, ITBA-3-82 and ITBA-3-85-mediated inhibition of NS3 helicase ranged˜20 μM (FIG. 14C). The ATPase activity of NS3 (50 μM) was analyzed in the presence of ITBA-3-79, ITBA-3-82 and ITBA-3-85 using a coupled spectrophotometric assay (Raney and Benkovic 1995, (FIG. 15). The protease activity of NS3 was analyzed in the presence of ITBA-3-79, ITBA-3-82 and ITBA-3-85 by using 50 nM NS3-4A and 100 nM substrate (Ac-Asp-Glu-Asp-EDANS-Glu-Glu-Abu-L-Lactoyl-Ser-Lys DABCYL-NH2, FIG. 15. The NS3 helicase activity was analyzed in the presence of 25 μM ITBA-3-79, ITBA-3-82 and ITBA-3-85 (FIG. 16).
A fluorescence based quantitative assay that measures helicase activity over time was employed to screen the compounds. The concentration of enzyme and compounds used was 250 nM and 20 μM respectively. Helicase catalyzes the unwinding of a FAM-labeled dsDNA and the resulting increase in fluorescence is plotted (λex-485 nm; λem, −528 nm). The slope of the initial part of the plot was used to calculate the percentage helicase activity. […] The IC50 value for ITBA-3-79, ITBA-3-82 and ITBA-3-85-mediated inhibition of NS3 helicase was determined using the same assay.

T2 sequence (P26663 1027-1657): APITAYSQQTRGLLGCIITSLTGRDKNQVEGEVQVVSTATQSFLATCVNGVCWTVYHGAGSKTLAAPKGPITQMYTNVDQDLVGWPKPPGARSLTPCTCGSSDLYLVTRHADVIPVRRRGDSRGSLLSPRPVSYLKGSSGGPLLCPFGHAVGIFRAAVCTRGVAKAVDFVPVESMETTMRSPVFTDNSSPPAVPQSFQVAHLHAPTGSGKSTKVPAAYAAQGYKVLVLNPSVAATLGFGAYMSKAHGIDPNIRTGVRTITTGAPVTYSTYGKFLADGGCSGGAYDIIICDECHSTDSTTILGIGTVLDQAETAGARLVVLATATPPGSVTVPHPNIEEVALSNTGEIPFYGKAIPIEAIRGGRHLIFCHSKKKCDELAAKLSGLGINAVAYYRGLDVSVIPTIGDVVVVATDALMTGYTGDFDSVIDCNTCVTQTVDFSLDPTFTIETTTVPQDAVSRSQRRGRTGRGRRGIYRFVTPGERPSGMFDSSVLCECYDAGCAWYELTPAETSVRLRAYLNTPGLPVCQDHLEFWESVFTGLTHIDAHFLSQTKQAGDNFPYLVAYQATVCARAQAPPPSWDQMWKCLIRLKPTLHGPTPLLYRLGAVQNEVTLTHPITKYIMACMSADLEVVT

COc1ccc2c(c1)c(C=C1C(=O)NC(=S)NC1=O)cn2C(=O)c1ccc2ccccc2c1 [PNR-3-82]
remaining activity at 1 µM (EndoG [1]; 20 min, compound 1 μM, read-out: % EndoG activity in the presence of the compound): 21.8%
pIC50 (EndoG [1]; IC50 against EndoG, EndoG screening assay): 6.21
protection of supercoiled plasmid DNA from degradation by EndoG (EndoG [2]): significantly protected the plasmid DNA from degradation
pIC50 (HCV NS3 helicase): ~4.70 and 4.67
